Target: T1, X-box-binding protein 1 (Homo sapiens, UniProt P17861)
T1 sequence (P17861 whole entry): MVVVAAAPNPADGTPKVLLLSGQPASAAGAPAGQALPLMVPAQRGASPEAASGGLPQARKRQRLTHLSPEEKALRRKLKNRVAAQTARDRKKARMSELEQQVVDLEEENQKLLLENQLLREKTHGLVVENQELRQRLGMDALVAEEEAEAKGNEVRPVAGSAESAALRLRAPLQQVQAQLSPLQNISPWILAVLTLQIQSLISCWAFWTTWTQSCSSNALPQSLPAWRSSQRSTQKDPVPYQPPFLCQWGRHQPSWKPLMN
Assay: Inhibition of thapsigargin-induced XBP1-luciferase activation in human HeLa cells incubated for 24 hrs by luciferase assay

Work on `CO[C@H]1/C=C/C=C/C=C/C[C@H](OC(=O)[C@@H](C)NC(=O)C2CCCCC2)[C@H](C)[C@@H](O)/C(C)=C\CCC2=C(SC)C(=O)C=C(NC(=O)C1)C2=O` yielded an IC50 of 67 µM.

From BindingDB's records for PubMed 36240545 (n/a, 2022)
